6 compounds from US20110294728A1, “Antiviral Polypeptides” (priority 2008, published 2011) can be followed below.

Experiment [1] relates to HIV-1-LAI strain. The method, then: The anti-HIV activities of the peptides were assayed according to the methods described in Roisin et al. (2004). Phytohemagglutinin-P(PHA-P)-activated peripheral blood mononuclear cells (PBMC) treated by increasing concentrations of peptide (from 100 to 0.1 nM), one hour later, were infected with hundred 50% tissue culture infectious doses (TCID50) per 100,000 cells of the HIV-1-LAI strain (Barre-Sinoussi et al., 1983). This virus was amplified in vitro on PHA-P-activated PBMC. Viral stock was titrated using PHA-P-activated PBMC, and 50% TCID50 were calculated using Kärber's formula (Kärber, 1931). Samples were maintained throughout the culture, and cell supernatants were collected at day 7 post-infection and stored at −20° C. Viral replication was measured by quantifying reverse transcriptase (RT) activity in cell culture supernatants. In parallel, cytotoxicity of the compounds was evaluated in uninfected PHA-P-activated PBMC by colorimetric 3-(4-5 dimethylthiazol-2-yl)2,5diphenyl tetrazolium bromite (MTT) assay on day 7 (as described in Mossmann, 1983). Experiments were performed in triplicate and repeated with another blood donor. Data analyses were performed using SofiMax® Pro 4.6 microcomputer software: percent of inhibition of RT activity or of cell viability were plotted vs concentration and fitted with quadratic curves; 50% effective doses (ED50) and cytotoxic doses (CD50) were calculated.
In order to avoid any limitation due to the poor ability of peptides to cross cellular membranes, they were associated to the peptide-based nanoparticle delivery system Pep-1 (SEQ ID NO: 29), at a 1/10 molar ratio.

Experiment [2] concerns the target T1, HIV-1 integrase (Human immunodeficiency virus type 1 group M subtype B, UniProt P04585).
T1 construct: Integrase is a 32 kDA viral protein that is biologically active under a multimeric form
In words: biochemical. Format: binding. As for the experimental part:
Fluorescein-labeled peptides (40 nM) were mixed with varying concentrations of integrase in 20 mM Tris pH 7.2, 50 mM NaCl, 10 mM MgCl2, and the r values were recorded.
Effect of the different peptides on the integrase (IN) activity, DNA binding and IN/DNA dissociation were evaluated as described in Example III.1 above, using fluorescence polarization and anisotropy measurements. Binding constant of the peptide for IN was determined by steady state fluorescence and anisotropy.

Experiment [3] has as its target T2, IN/DNA complexes (Human immunodeficiency virus type 1 group M subtype B, UniProt P04585). In words: DNA-binding of integrase, fluorescence anisotropy. Format: biochemical, HIV-1. As for the experimental part:
(§1) The simultaneous measurement of integrase-DNA interaction and subsequent 3′-processing activity by steady-state fluorescence anisotropy was performed as described in Guiot et al. (2006). […] After the initial DNA-binding step (performed at 25° C.), the 3′-processing activity was measured at 37° C. by fixed-time experiments: The reaction was stopped at varying times by adding SDS (0.25% final) which disrupts all IN-DNA complexes in the sample. The IN-mediated cleavage of the terminal GT dinucleotide (labeled by fluorescein on the 3′-end) leads to a significant decrease of r as compared to the r value corresponding to the fluorescein-labeled unprocessed DNA substrate. The fraction of released dinucleotide is calculated by using Eq. (1): […]
(Polarisation of emitted light reports the rotation of a fluorescent probe.)

For experiment [4], the target named is T3, HIV-1 RT (Human immunodeficiency virus type 1 group M subtype B, UniProt P03366).
T3 construct: The heterodimeric p66/p51 RT was eluted with an imidazole gradient; p66 and p51 derived from p66 by proteolytic cleavage of the C-terminal RNAse H domain; made in house; host or cells: E. coli (M15 for the His-tagged subunits)
The experiment can be described thus: biochemical. The method, then: RNA-dependent-DNA RT-polymerase activity was measured in a standard reaction assay using poly(rA)-(dT)15 as template/primer as described in Restle et al. (1990). Ten microliters of reverse transcriptase (RT) at 20 nM was incubated at 37° C. for 30 min with 20 μL of reaction buffer (50 mM Tris, pH 8.0, 80 mM KCl, 6 mM MgCl2, 5 mM DTT, 0.15 μM poly(rA-dT), 15 μM dTTP, 0.3 μCi 3H-dTTP). For peptide evaluation, HIV-1 RT was incubated with increasing concentrations of peptide inhibitors for […], and polymerase reaction was initiated by adding reaction buffer. Reactions were stopped by precipitation of nucleic acids with 5 ml of 20% trichloroacetic acid (TCA) solution for 2 h on ice, then filtered using a multiwell-sample collector (Millipore), and washed with 5% TCA solution. Filters were dried at 55° C. for 30 min and radionucleotide incorporation was determined by liquid scintillation spectrometry.
A series of peptides have been derived from Pep-A sequence (SEQ ID NO: 28), which is derived from HIV-1 reverse transcriptase. First, P1 peptide (SEQ ID NO: 1) was obtained by removing the N-terminal arginine of Pep-A. Then, additional peptides were generated by performing an alanine scan on P1. P1-derived peptides were evaluated using a standard polymerase RT assay. Reported data correspond to the mean of three separate experiments.

For experiment [5], the target named is T2, IN/DNA complexes. The experiment can be described thus: Dissociation of pre-formed IN-DNA substrate complexes. Format: biochemical, HIV-1. As for the experimental part:
For dissociation experiments, IN-DNA substrate complexes were pre-formed at 25° C. before addition of peptides. The peptide-mediated dissociation of complexes was then studied at the same temperature by measuring the decrease in the r value as a function of time.

Experiment [6] addresses IN/LEDGF complex (Human immunodeficiency virus type 1 group M subtype B, UniProt P04585). In words: Dissociation of IN/LEDGF complex (AlphaScreen, immunoprecipitation). Format: biochemical. The method, then: Dissociation of IN/LEDGF complex was measured by fluorescence resonance energy transfer (AlphaScreen® technology) and immunoprecipitation experiments: • Amplified Luminescent Proximity Homogeneous Assay (ALPHA): when the proteins (IN and LEDGF), linked to acceptor and donor beads, interact together (i.e., are into close proximity), a photosignal (a high amplified signal with output in the 520-560 nm range) is detected; when the proteins are not in close proximity, the reactive oxygen decays and there is no detectable signal generated; • immunoprecipitation (IP) was performed using polyclonal anti LEDGF antibodies (purchased from Santa Cruz Biotechnology, USA) and polyclonal HA antibodies (purchased from Eurogentec, Belgium). Cell line expression HA-tagged integrase was using for the experiment in the presence of increasing concentrations of peptide inhibitors.
For orientation: In Alpha technology, singlet oxygen from a donor bead excites a nearby acceptor bead.

For experiment [7], the target named is T1, HIV-1 integrase. In words: biochemical. As for the experimental part: as §1
Experiment [8] concerns efavirenz-resistance HIV strain harbouring K103N and N341V mutations on reverse transcriptase. Format: in vivo, Hu-PBL-SCID transgenic mice. Particulars: EFZ resistance strain; 20 mg/kg/day; peptides formulated with CADY-2c/CADY-1S1. As for the experimental part:
(§2) The potency of the peptides p27 (SEQ ID NO: 25) and p16 (SEQ ID NO: 19) was assessed in vivo following intravenous challenge of Hu-PBL-SCID transgenic mice (in which human (hu) peripheral blood leukocytes (PBLs) from healthy Epstein-Barr virus (EBV)-seropositive donors are injected into severe combined immunodeficiency (SCID) mice; Mosier et al., 1988). The mice (6 to 8 week-old male mice, 5 animals per group) were infected with wild type HIV 1 virus or efavirenz-resistance HIV strain harbouring K103N and N341V mutations on reverse transcriptase. Infected mice were treated with peptides formulated with the peptide vector CADY-2c (see above) in water at a ratio 1/20, and then particles were coated with 3% of CADY-1S1 (see above), as described in International Application WO 2007/069090. Particles were injected intravenously (100 μl) every 2 days for 1 week, then HIV-1 copy were quantified by quantitative PCR. Efavirenz (a non-nucleoside reverse transcriptase inhibitor; EFZ) was used a positive drug control.

In experiment [9] the test system is wild type HIV 1 virus. The experiment can be described thus: HIV propagation in Hu-PBL-SCID mice, wild type virus. It counts as in vivo, Hu-PBL-SCID transgenic mice. Particulars: 20 mg/kg; peptides formulated with CADY-2c/CADY-1S1; HIV-1 DNA copies in splenocyte extracts. The method, then: as §2
Where [10] appears, read: read-out: EC50 HIV-1 lai, Table 10.

Read-outs that look alike come from different tables or passages of the source. Where a SMILES comes first, the peptide text is derived from it. Bridges are numbered along the chain shown (N, C = ends). Where no end group is shown, it is not given here.

As to GTKWLTEWIPL [Peptide P24], the EC50 in experiment [1] (read-out: EC50, antiviral activity, peptide complexed with Pep-1) is 2.3 nM; in [3] it was 35 µM; in experiment [5], 21 µM; in experiment [6] it was 13 µM; in [7], 33 µM. This compound also registered a Kd in [2] of 350 nM. Also, in experiment [4], the Ki came out at 700 ± 50 nM.

For `O=C1Nc2ccc(Cl)cc2[C@@](C#CC2CC2)(C(F)(F)F)O1` [Efavirenz, reference compound], the “reduction of viral propagation” value in experiment [8] is recorded as “no effect”. In experiment [9], the “HIV propagation in vivo (in words)” value is listed as “block HIV propagation in vivo”.

Turning to `CC(C)C[C@@H]1NC(=O)[C@H](Cc2c[nH]c3ccccc23)NC(=O)[C@H](CCCCN)NC(=O)[C@H]([C@@H](C)O)NC(=O)CNC(=O)[C@@H](N)CSSC[C@@H](C(=O)O)NC(=O)[C@H](CC(C)C)NC(=O)[C@@H]2CCCN2C(=O)[C@H](Cc2c[nH]c3ccccc23)NC(=O)[C@H](C(C)C)NC(=O)[C@H](CCC(=O)O)NC(=O)[C@H]([C@@H](C)O)NC1=O` [Peptide P16C1] (H-CGTKWLTEVWPLC-OH; disulfide 1-13), the EC50 in [1] (setting [10]) is 2.5 nM. In experiment [2], the Kd turned out to be 90 nM. Also, the figures for the Ki in [4] and in experiment [7] were 32100 nM and 4.3 µM, respectively.

`CC[C@H](C)[C@@H]1NC(=O)[C@H](Cc2c[nH]c3ccccc23)NC(=O)[C@H](CCC(=O)O)NC(=O)[C@H]([C@@H](C)O)NC(=O)[C@H](CC(C)C)NC(=O)[C@H](Cc2c[nH]c3ccccc23)NC(=O)[C@H](CCCCN)NC(=O)[C@H]([C@@H](C)O)NC(=O)CNC(=O)[C@@H](N)CSSC[C@@H](C(=O)O)NC(=O)[C@H](CCC(=O)O)NC(=O)[C@H](C)NC(=O)[C@H](CCC(=O)O)NC(=O)[C@H](C)NC(=O)[C@H]([C@@H](C)O)NC(=O)[C@H](CC(C)C)NC(=O)[C@@H]2CCCN2C1=O` [PAW-C1] (H-CGTKWLTEWIPLTAEAEC-OH; disulfide 1-18): the EC50 in [1] (setting [10]) came to 1.2 nM. In experiment [2], this compound had a Kd of 290 nM. For the same compound, the Ki is 200 nM in experiment [4] and 21 µM in experiment [7].

Turning to KWLTEWIPLTAEAE [Peptide P26], the affinity in experiment [2], expressed as Kd, was 320 nM. The EC50 is 54 µM in [3], 67 µM in [5], greater than 50 µM in [6] and 28 µM in [7]. In experiment [4], this compound came in with a Ki of 1800 ± 700 nM. Besides, the “reduction of efficiency (higher Ki) relative to PAW” value in experiment [4] (relative to PAW) stood at 2.5 fold.

Regarding `CC[C@H](C)[C@@H]1NC(=O)[C@H](Cc2c[nH]c3ccccc23)NC(=O)[C@H](CCC(=O)O)NC(=O)[C@H]([C@@H](C)O)NC(=O)[C@H](CC(C)C)NC(=O)[C@H](Cc2c[nH]c3ccccc23)NC(=O)[C@H](CCCCN)NC(=O)[C@H]([C@@H](C)O)NC(=O)CNC(=O)[C@@H](N)CSSC[C@@H](C(=O)O)NC(=O)[C@H](CCC(=O)O)NC(=O)[C@H](C)NC(=O)[C@H]([C@@H](C)O)NC(=O)[C@H](CC(C)C)NC(=O)[C@@H]2CCCN2C1=O` [Peptide P27C1] (H-CGTKWLTEWIPLTAEC-OH; disulfide 1-16), in experiment [1] (setting [10]), the EC50 worked out at 0.17 nM. This compound came in with a Kd in experiment [2] greater than 100000 nM. Moreover, the figures for the Ki in [4] and in experiment [7] were 42 nM and greater than 100 µM, respectively.

Usually EC50 stands for the concentration at which the effect is half-maximal. As a reminder, the Kd is the concentration at which binding is half-saturated. Higher therefore signals lower affinity. The Ki is a dissociation constant, usually derived from enzyme kinetics or from competition with a known ligand.
